biological target: T1, human Edg-1 receptor (Homo sapiens, UniProt P21453); assay: GTP-γ-S assay using human Edg-1 receptors (SPA, CHO Flp-In cell membrane preparation); type: biochemical; conditions: test compound at 10 μM; high control 10 μM S1P regarded as 100% activation; background-corrected; triplicate
T1 construct: FLAG (N); expressed in transfected cells; membrane preparation
Description: Determination of the Pharmacological Activity A) GTP-γ-S Assay Using Human Edg-1 Receptors
In order to determine the Edg-1 receptor activation by the compounds of the invention, a GTP-γ-S (guanosine 5′-[γ-thio]triphosphate) assay for G-protein coupled receptor binding based on the scintillation proximity assay principle was used, employing a cell membrane preparation from a CHO Flp-In cell line which constitutively overexpresses the human Edg-1 receptor.
The Flp-In™ expression system (Invitrogen, cat. no. K6010-01) allows the generation of stable mammalian cell lines into which the gene of interest has been integrated through homologous recombination at a specific genomic location called Flp Recombination Target (FRT) site by means of a Flp recombinase encoded by the pOG44 expression plasmid. The integration of the pcDNA5/FRT expression construct into the Flp-In host cell line genome results in the transcription of the gene of interest. The stably transfected cells become hygromycin-resistant.
One day prior to transfection, 200 000 Flp-In-CHO cells were seeded in Ham F-12 medium (Invitrogen, cat. no. 31765) supplemented with 10% fetal calf serum (FCS; Perbio Science, cat. no. SH30068.03) in a 6-well plate and incubated at 37° C./5% CO2 overnight. Using the FuGENE® 6 transfection reagent (Roche, cat. no. 11988387001), cells were cotransfected with the Flp recombinase expression plasmid pOG44 and a modified plasmid additionally containing the edg-1 gene (accession no. NM_001400) termed as pcDNA5-FRT-TO_nFLAG_DEST-EDG-1 with a 9:1 ratio. To obtain the modified pcDNA5-FRT-TO_nFLAG_DEST plasmid, the Invitrogen plasmid pcDNA5/FRT/TO (Invitrogen, cat. no. V6520-20) was adapted to the Gateway® (Invitrogen) cloning system by inserting a Gateway cassette containing attR recombination sites flanking a ccdB gene and a chloramphenicol-resistance gene (Gateway conversion system, Invitrogen, cat. no. 11828-029). In addition a FLAG tag epitope was added before the 5′ att recombination site to allow recombinant expression of N-terminally FLAG-tagged proteins.
For the transfection of one well, 1.08 μg of pOG44 and 0.12 μg of pcDNA5-FRT-TO_nFLAG_DEST-EDG-1 were mixed with 100 μl of serum-free Ham F-12 medium containing 6 μl of FuGENE® 6 transfection reagent. After 20 min of incubation, the transfection reagent/DNA complex was distributed dropwise on the cells. The cells were incubated for 24 h at 37° C. Then the cells from 3 wells each were transferred to a T75 flask (Greiner Cellstar®, cat. no. 658175) containing Ham F-12 medium supplemented with 10% of FCS but without antibiotic and were incubated another 24 h. 48 h after transfection, the medium was replaced by selection medium (Ham F-12 supplemented with 10% of FCS and 300 μg/ml of hygromycin B (Invitrogen, cat. no. 10687-010)). The medium was exchanged every 2 to 3 days until a resistant population of cells had grown. […] After 2 weeks of selection, the cells were transferred into T175 flasks (Greiner Cellstar®, cat. no. 660175) and cultivated for batch production. Cells were harvested from the culture flasks by short treatment (2 to 5 min) with Accutase (PAA, cat. no. L11-007), resuspended in selection medium (see above) and centrifuged at 200×g for 5 min. Cells were resuspended in a mixture of 90% of FCS and 10% of dimethylsulfoxide and stored frozen in liquid nitrogen.
A membrane preparation was obtained by standard methods from the afore-described CHO Flp-In cell line constitutively overexpressing the human Edg-1 receptor. Briefly, the cryopreserved cells were taken in culture and grown until confluency in T175 cell culture flasks (Becton Dickinson, cat. no. 35 5001). […]

T1 sequence (P21453 whole entry): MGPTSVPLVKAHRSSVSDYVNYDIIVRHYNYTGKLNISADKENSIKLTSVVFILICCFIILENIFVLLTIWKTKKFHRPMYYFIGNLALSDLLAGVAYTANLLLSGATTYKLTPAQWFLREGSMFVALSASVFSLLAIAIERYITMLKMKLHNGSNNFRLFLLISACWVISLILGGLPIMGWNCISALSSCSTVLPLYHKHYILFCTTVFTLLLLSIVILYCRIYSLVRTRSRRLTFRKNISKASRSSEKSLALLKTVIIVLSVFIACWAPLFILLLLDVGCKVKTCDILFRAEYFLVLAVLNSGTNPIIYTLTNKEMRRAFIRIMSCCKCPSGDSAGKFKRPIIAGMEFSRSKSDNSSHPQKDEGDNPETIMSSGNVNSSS

% Activation (Edg-1 receptor activation in percent of the activation by 10 μM S1P) [%]	Compound
96	CCCOc1nc(Oc2ccc(=O)n(C)n2)nc2oc(-c3cc(F)ccc3Cl)nc12 [Example 114, 6-[2-(2-chloro-5-fluoro-phenyl)-7-propoxy-oxazolo[5,4-d]pyrimidin-5-yloxy]-2-methyl-2H-oyridazin-3-one]

same assay, conditions: test compound at 10 μM; high control 10 μM S1P regarded as 100% activation; background-corrected; triplicate; read-out: % Activation (Edg-1 receptor activation in percent of the activation by 10 μM S1P)

Compound	activation at 10 µM [%]
Fc1cccc(-c2nc3c(OCC4CC4)nc(Oc4ccccc4F)nc3o2)c1 [Example 32, 7-cyclopropylmethoxy-5-(2-fluoro-phenoxy)-2-(3-fluoro-phenyl)-oxazolo[5,4-d]pyrimidine]	61
CCCOc1nc(OC2CCOCC2)nc2oc(-c3cccc(C)c3)nc12 [Example 71, 7-propoxy-5-(tetrahydro-pyran-4-yloxy)-2-(3-methyl-phenyl)-oxazolo[5,4-d]pyrimidine]	102
CCOc1nc(Oc2ccccc2F)nc2oc(-c3cc(F)ccc3Cl)nc12 [Example 30, 2-(2-chloro-5-fluoro-phenyl)-7-ethoxy-5-(2-fluoro-phenoxy)-oxazolo[5,4-d]pyrimidine]	134
CCCOc1nc(NC2CCC(F)(F)CC2)nc2oc(-c3cc(F)ccc3Cl)nc12 [Example 64, [2-(2-chloro-5-fluoro-phenyl)-7-propoxy-oxazolo[5,4-d]pyrimidin-5-yl]-(4,4-difluoro-cyclohexyl)-amine]	109
COc1c(C)cc(-c2nc3c(OC4COC4)nc(Oc4ccccc4F)nc3o2)cc1C [Example 8, 5-(2-Fluoro-phenoxy)-2-(4-methoxy-3,5-dimethyl-phenyl)-7-(oxetan-3-yloxy)-oxazolo[5,4-d]pyrimidine]	124
CCCOc1nc(OC2CCC(C)CC2)nc2oc(-c3cccc(C)c3)nc12 (centres unmarked) [Example 70, 5-(4-methyl-cyclohexyloxy)-7-propoxy-2-(3-methyl-phenyl)-oxazolo[5,4-d]pyrimidine]	77
CCOc1nc(Sc2ccc(F)c(F)c2)nc2oc(-c3cccc(C)c3)nc12 [Example 12, 5-(3,4-difluoro-phenylsulfanyl)-7-ethoxy-2-(3-methyl-phenyl)-oxazolo[5,4-d]pyrimidine]	84
CCCOc1nc(NC2CCC(C)CC2)nc2oc(-c3cc(F)ccc3Cl)nc12 (centres unmarked) [Example 113, [2-(2-chloro-5-fluoro-phenyl)-7-propoxy-oxazolo[5,4-d]pyrimidin-5-yl]-(4-methyl-cyclohexyl)-amine]	52
CCCOc1nc(Oc2ccccc2F)nc2oc(-c3cccnc3)nc12 [Example 107, 5-(2-fluoro-phenoxy)-7-propoxy-2-pyridin-3-yl-oxazolo[5,4-d]pyrimidine]	129
CCCOc1nc(Sc2nc(C)cs2)nc2oc(-c3cc(F)ccc3Cl)nc12 [Example 58, 2-(2-chloro-5-fluoro-phenyl)-5-(4-methyl-thiazol-2-ylsulfanyl)-7-propoxy-oxazolo[5,4-d]pyrimidine]	102
Cc1cccc(-c2nc3c(OCC4CC4)nc(OC4COC4)nc3o2)c1 [Example 39, 7-cyclopropylmethoxy-5-(oxetan-3-yloxy)-2-(3-methyl-phenyl)-oxazolo[5,4-d]pyrimidine]	47

The next lines start with the values.

activation at 10 µM [%]	Compound
89	CCCOc1nc(Oc2cc(C)ccc2Cl)nc2oc(-c3cccc(C)c3)nc12 [Example 137, 5-(2-chloro-5-methyl-phenoxy)-7-propoxy-2-(3-methyl-phenyl)-oxazolo[5,4-d]pyrimidine]
86	CCCOc1nc(Oc2cc(Cl)ccc2Cl)nc2oc(-c3cccc(C)c3)nc12 [Example 120, 5-(2,5-dichloro-phenoxy)-7-propoxy-2-(3-methyl-phenyl)-oxazolo[5,4-d]pyrimidine]
110	CCCOc1nc(Oc2cc(C)nn2C)nc2oc(-c3cccc(C)c3)nc12 [Example 25, 5-(2,5-dimethyl-2H-pyrazol-3-yloxy)-7-propoxy-2-(3-methyl-phenyl)-oxazolo[5,4-d]pyrimidine]
63	CCCOc1nc(Oc2cccc3c2OC(C)(C)C3)nc2oc(-c3cccc(C)c3)nc12 [Example 83, 5-(2,2-dimethyl-2,3-dihydro-benzofuran-7-yloxy)-7-propoxy-2-(3-methyl-phenyl)-oxazolo[5,4-d]pyrimidine]
94	CCCOc1nc(Oc2cccnc2)nc2oc(-c3ccc(Cl)c(Cl)c3)nc12 [Example 44, 2-(3,4-dichloro-phenyl)-7-propoxy-5-(pyridin-3-yloxy)-oxazolo[5,4-d]pyrimidine]
47	CCCOc1nc(Oc2cccc(S(N)(=O)=O)c2)nc2oc(-c3cccc(F)c3)nc12 [Example 23, 3-[2-(3-fluoro-phenyl)-7-propoxy-oxazolo[5,4-d]pyrimidin-5-yloxy]-benzenesulfonamide]
105	CCCOc1nc(Oc2c(C)cccc2Cl)nc2oc(-c3cccc(C)c3)nc12 [Example 91, 5-(2-chloro-6-methyl-phenoxy)-7-propoxy-2-(3-methyl-phenyl)-oxazolo[5,4-d]pyrimidine]
73	CCCOc1nc(Oc2ccc(C)cc2C)nc2oc(-c3cccc(C)c3)nc12 [Example 53, 5-(2,4-dimethyl-phenoxy)-7-propoxy-2-(3-methyl-phenyl)-oxazolo[5,4-d]pyrimidine]
89	CCCOc1nc(Oc2ccc(C)c(F)c2)nc2oc(-c3cccc(F)c3)nc12 [Example 81, 5-(3-fluoro-4-methyl-phenoxy)-2-(3-fluoro-phenyl)-7-propoxy-oxazolo[5,4-d]pyrimidine]
70	CCCOc1nc(OC2COC2)nc2oc(-c3cccc(C)c3)nc12 [Example 38, 5-(oxetan-3-yloxy)-7-propoxy-2-(3-methyl-phenyl)-oxazolo[5,4-d]pyrimidine]
84	CCCOc1nc(Oc2cc(Cl)ccc2C)nc2oc(-c3cccc(F)c3)nc12 [Example 67, 5-(5-chloro-2-methyl-phenoxy)-2-(3-fluoro-phenyl)-7-propoxy-oxazolo[5,4-d]pyrimidine]
108	CCCOc1nc(Oc2cc(F)cc(F)c2Cl)nc2oc(-c3cccc(C)c3)nc12 [Example 100, 5-(2-chloro-3,5-difluoro-phenoxy)-7-propoxy-2-(3-methyl-phenyl)-oxazolo[5,4-d]pyrimidine]
65	CCCOc1nc(Oc2ccc(CC)cc2)nc2oc(-c3cccc(C)c3)nc12 [Example 122, 5-(4-ethyl-phenoxy)-7-propoxy-2-(3-methyl-phenyl)-oxazolo[5,4-d]pyrimidine]
60	CCCOc1nc(Oc2ccc(Cl)c(C)c2)nc2oc(-c3cccc(C)c3)nc12 [Example 140, 5-(4-chloro-3-methyl-phenoxy)-7-propoxy-2-(3-methyl-phenyl)-oxazolo[5,4-d]pyrimidine]
67	CCCOc1nc(Oc2ccccc2C(C)(C)C)nc2oc(-c3cccc(C)c3)nc12 [Example 96, 5-(2-tert-butyl-phenoxy)-7-propoxy-2-(3-methyl-phenyl)-oxazolo[5,4-d]pyrimidine]
104	CCCOc1nc(Oc2ccc(C#N)c(F)c2)nc2oc(-c3cccc(C)c3)nc12 [Example 134, 2-fluoro-4-(7-propoxy-2-(3-methyl-phenyl)-oxazolo[5,4-d]pyrimidin-5-yloxy)-benzonitrile]
107	CCCOc1nc(Oc2cc(F)ccc2C)nc2oc(-c3cccc(C)c3)nc12 [Example 50, 5-(5-fluoro-2-methyl-phenoxy)-7-propoxy-2-(3-methyl-phenyl)-oxazolo[5,4-d]pyrimidine]

Source: patent publication US8785439B2, “2,5,7-substituted oxazolopyrimidine derivatives” (Sanofi, priority 2010, dated 2014)
